Columns and labels:
[1] = test system: patient with ADHD of the combined type; assay: Case Study 1: lacosamide mono-therapy in a child with ADHD; assay type: in vivo, human
Experimental: We present the case study of a child suffering from ADHD (with no comorbidity such as epilepsy or bipolar disorder). The child was treated with a lacosamide mono-therapy for several weeks based on the conventional treatment regime for lacosamide in children (for the treatment of epilepsy and/or bipolar disorder).
This case study describes the case of a person (“the patient”) with ADHD of the combined type. The patient had not previously been treated with any psychotropic drugs.
Before initiating the selected drug treatment, the patient underwent a full medical examination. In addition, reports from their school teachers as well as parents were collected.
Lacosamide was administered to the patient following the approved treatment regimen for lacosamide (Vimpat®) in epileptic children from 4 years of age.
The treatment was delivered twice a day and went on for >8 weeks.

[2] = test system: children and adolescents with ADHD syndrome; assay: Case Study 3: Test of Nonverbal Intelligence (TONI-2); assay type: in vivo, human
Experimental: (§1) These tests offered an objective element that contributed to the establishment of the diagnosis.
(§2) Neuropsychological evaluation was repeated after six months on medication, at the end of the study. These evaluations were guided by trained neuropsychologists. Four different evaluations were conducted: Continuous Performance Test (CPT)1, STROOP-P test, Wisconsin Card sorting Test and the Non Verbal Intelligence Test.
The patients were assessed using the Test of Nonverbal Intelligence (TONI-2), which is a language-free measure of abstract problem-solving ability.

[3] = test system: children and adolescents with ADHD syndrome; assay: Case Study 3: Wisconsin Card Sorting Test (WCST) Flexibility; assay type: in vivo, human
Experimental: as §1, §2
The patients were assessed using the Wisconsin Card Sorting Test (WCST), which is used to measure higher-level cognitive processes, such as attention, perseverance, abstract thinking, and set shifting. It is particularly used in clinical fields to measure perseverative behaviours that refer to an individual's insistence on wrong behaviour.

[4] = test system: children and adolescents with ADHD syndrome; assay: Case Study 3: STROOP-P test; assay type: in vivo, human
Experimental: as §1, §2
The patients were assessed using the STROOP-P test, which is used to assess the ability to inhibit cognitive interference that occurs when the processing of a specific stimulus feature impedes the simultaneous processing of a second stimulus attribute, well-known as the Stroop Effect.

[5] = test system: children and adolescents with ADHD syndrome; assay: Case Study 3: IQ test prior to and after treatment; assay type: in vivo, human; conditions: for IQ: Post-treatment, patient
Experimental: IQ was tested prior to and after treatment.

[6] = test system: children and adolescents with ADHD syndrome; assay: Case Study 3: Tutors evaluation pre to post treatment (DSM-V questionnaire); assay type: in vivo, human
Experimental: The Tutors Pre-Post Evaluation (self-administrated) was performed at the end of the study. This assessment required the person responsible for the patient's everyday life and care to evaluate the progression through the period of the study, including intellectual and behavioural changes.
The tutors have evaluated the patients using the DSM-V questionnaire, which is typically used as a standard to classify mental disorders by mental health professionals in the United States.

[7] = test system: children and adolescents with ADHD syndrome; assay: Case Study 3: neuropsychological results analysis (executive function, attention); assay type: in vivo, human; conditions: after six months on medication
Experimental: as §2
We measured pedagogical values and characteristics of the executive function (Reasoning, Cognitive Flexibility, Attentional function, Intellectual Quotient, impulse inhibition, Perseveration resistance) throughout the course of the treatment with lacosamide.

[8] = test system: children and adolescents with ADHD syndrome; assay: Case Study 3: adverse reactions or side effects; assay type: in vivo, human; conditions: all 12 patients, 6 months
From the text: To formalise the control of the treatment, a tool was designed, allowing to record all administrated doses to participants on a daily basis, including any occurrence or increase of adverse reactions or side effects.

[9] = test system: voltage-gated sodium channels; conditions: cited from earlier work
[10] = test system: voltage-gated calcium channels (L-, N-, P/Q, T-type channels); conditions: cited from earlier work
[11] = test system: AMPA, kainate, NMDA, GABAA, GABAB, dopaminergic, serotonergic, adrenergic, muscarinic or cannabinoid receptors; conditions: cited from earlier work
[12] = test system: reuptake of norepinephrine, dopamine, and serotonin; conditions: cited from earlier work
GABA transaminase = GABA transaminase (Homo sapiens, UniProt P80404); conditions: cited from earlier work
Chain of GABA transaminase (P80404 29-500, species assumed): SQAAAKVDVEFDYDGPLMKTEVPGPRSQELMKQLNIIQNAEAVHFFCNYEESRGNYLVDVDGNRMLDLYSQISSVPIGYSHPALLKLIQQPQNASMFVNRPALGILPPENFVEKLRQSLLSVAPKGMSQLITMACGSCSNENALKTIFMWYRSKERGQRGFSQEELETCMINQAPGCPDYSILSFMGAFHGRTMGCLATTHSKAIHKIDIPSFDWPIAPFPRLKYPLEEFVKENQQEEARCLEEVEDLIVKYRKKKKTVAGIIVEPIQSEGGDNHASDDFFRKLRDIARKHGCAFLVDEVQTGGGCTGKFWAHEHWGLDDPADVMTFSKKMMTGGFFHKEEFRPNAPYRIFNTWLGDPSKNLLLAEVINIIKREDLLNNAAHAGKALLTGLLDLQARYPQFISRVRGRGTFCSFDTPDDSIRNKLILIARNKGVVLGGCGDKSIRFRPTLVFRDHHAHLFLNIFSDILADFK

COC[C@@H](NC(C)=O)C(=O)NCc1ccccc1 [lacosamide, (2R)-2-(acetylamino)-N-benzyl-3-methoxypropanamide]
tolerance of the maximum dose administered ([1]; 250 mg/day): no signs of intolerance or inadequacy
tolerance of the dose ([1]; Day 8, 25 mg every 12 hours (50 mg/day)): tolerated the dose well
behaviour, sleeping activity, cognitive functionality ([1]; Day 8, 50 mg/day): No improvement
adverse reaction observed ([1]; Day 8, 50 mg/day, ceased after the first few days of treatment): sporadic headaches
quality of sleep or cognitive functionality ([1]; Day 15, 100 mg/day): No improvement
quality of sleep ([1]; Day 23, 75 mg every 12 hours (150 mg/day)): Improvement
cognitive functionality ([1]; Day 23, 150 mg/day): improved
lethargic napping in the afternoon ([1]; Day 32, after increase to 200 mg/day, symptoms subsequently became milder): initially replaced with agitation and hyperactivity
behaviour at school and home ([1]; Day 36, 200 mg/day): consistent improvement
aggression or irritability at home ([1]; Day 49, 125 mg every 12 hours (250 mg/day)): did not show any aggression or irritability
conversation in consultation ([1]; Day 49, 250 mg/day): able to sustain longer logical conversations, at least partially
dysphasia ([1]; Day 63, 250 mg/day): gradual improvement
hyperactivity ([1]; Day 63, 250 mg/day): no signs of hyperactivity
quality of sleep ([1]; Day 63, 250 mg/day): dramatically improved
dose after which sleep pattern and vegetative functions began to stabilize ([1]; administered as two separate 75 mg doses): 150 mg/day
dose at which higher functions were stabilized ([1]; administered as two separate 100 mg doses): ~200 mg/day
ADHD symptomatology ([1]; child, mono-therapy for several weeks): regressed dramatically
secondary reactions or effects ([1]; twice a day for >8 weeks): No secondary reactions or effects were observed
non-verbal reasoning: number of subjects who reached the high average level ([2]; after six months on medication): doubling
patients scoring high average in TONI-2 ([2]; end of the tested period, from 16.7%): 33.3%
patients scoring average in TONI-2 ([2]; end of the tested period, from 50%): 58.3%
cognitive flexibility ([3]; after six months on medication): improving
patients with Average and High Average scores, WCST Flexibility ([3]; second evaluation, 25% in the first evaluation): 50%
patients in the lowest two categories (Mild and Severe Deterioration), WCST Flexibility ([3]; second evaluation, 41.7% in the first evaluation): 16.6%
ability to inhibit cognitive interference ([4]; measured in both cerebral hemispheres): positive but to a limited extent
patients with Average result, STROOP-P ([4]; second test, 8.3% in the first evaluation): 25%
patients with Severe Deterioration, STROOP-P ([4]; second test, 25% initially): 8.3%
patients who maintained previous IQ levels ([5]; 12 patients tested): 23%
patients who raised their IQ values ([5]; 12 patients tested): 77%
patients with a lowering of the IQ value ([5]; 12 patients tested): In none of the patients
IQ ([5]; 2nd High School, Pre-treatment CI-80): CI-90
IQ ([5]; 2nd High School, Pre-treatment CI-99): CI-112
IQ ([5]; 2nd Primary, Pre-treatment CI-94): CI-106
IQ ([5]; 3rd Primary, Pre-treatment CI-82): CI-82
IQ ([5]; 3rd Primary, Pre-treatment CI-117): CI-117
IQ ([5]; 5th Primary, Pre-treatment CI-81): CI-91
IQ ([5]; 5th Primary, Pre-treatment CI-91): CI-95
IQ ([5]; 5th Primary, Pre-treatment CI-95): CI-104
IQ ([5]; 5th Primary, Pre-treatment CI-111): CI-111
IQ ([5]; 6th Primary, Pre-treatment CI-93): CI-95
IQ ([5]; 7th Primary, Pre-treatment CI-87): CI-91
IQ ([5]; Bachelor, Pre-treatment CI-108): CI-114
IQ progression on average ([5]; subgroup of 33% of the patients): four
IQ progression average ([5]; subgroup of 40% of the patients): around 11±2 points
patients in the subgroup with the smaller IQ progression ([5]; subgroup that progressed on average by four points): 33%
patients in the subgroup with the larger IQ progression ([5]; subgroup with progression average of around 11±2 points): 40%
global IQ increase ([5]; sum for 12 patients tested): 60 points
behaviour, tutors' DSM-V questionnaire [6]: significantly improved across all tested elements
Visual Attention, Perseveration Resistance and Impulse Inhibition [7]: did not show the expected improvement
indicator Attentional Difficulty [7]: improvement
variables of distraction and impulsivity [7]: no impact
side effects [8]: without substantial side effects
fast inactivation of voltage-gated sodium channels [9]: without affecting
slow inactivation of voltage-gated sodium channels [9]: enhances
inhibition of voltage-gated calcium channels (L-, N-, P/Q, T-type) [10]: not to inhibit
effect on AMPA, kainate, NMDA, GABAA, GABAB, dopaminergic, serotonergic, adrenergic, muscarinic or cannabinoid receptors [11]: does not affect
modulation of reuptake of norepinephrine, dopamine, and serotonin [12]: does not modulate
inhibition of GABA transaminase (GABA transaminase): does not inhibit

From US20220257541A1, “Lacosamide for the Treatment of ADD/ADHD” (priority 2019, published 2022)
